Laboratory results: US5460697A, “Method of pulping wood chips with a fungi using sulfite salt-treated wood chips” (priority 1994, dated 1995)
“Also recorded” adds a separate entry of the source.

Legend:
[1] = system: C. subvermispora; assay: Growth of C. subvermispora on sodium bisulfite-treated chips; format: cell-based; conditions: for growth of C. subvermispora at harvest (in words): fungus-treated chips with sodium bisulfite
Method: To prepare a liquid inoculum of C. subvermispora, potato dextrose broth (43.20 g) and yeast extract (13.08 g) were added to 1800 ml of distilled water and mixed well. 300 ml of this medium was poured into six 2800-ml flasks. Each flask was autoclaved for 20 min. at 121° C. After cooling to room temperature, each flask was inoculated with 30 plugs cut into 13-mm diameter plugs from a 10-day old fungal culture on a potato dextrose agar plate. The flasks were then incubated at 27° C. at 65% relative humidity for 10-15 days. Prior to use, the flasks containing the fungal biomass were decanted and washed with sterile distilled water to remove excess medium from the fungus. The fungal biomass was then placed in distilled water and blended in a Waring blender (VWR scientific) twice for 15 seconds each time at high speed, following which distilled water was added to the suspension to make the total volume 500 ml. About 100 grams of this suspension (2.61 g dry weight) was added to each bioreactor containing about 1600 grams of aspen chips measured on a dry weight basis prepared as described below. The blended mycelium was dumped onto the chips and mixed.
Three batches of aspen wood chips were prepared, each batch containing 1800 g dry weight of chips. One batch was soaked in 18 kg of water containing no sodium bisulfite. A second batch was soaked in 18 kg of water containing 28.125 g of sodium bisulfite. A third batch was soaked in 18 kg of water containing 56.250 g of sodium bisulfite. After the chips had soaked, we performed our experiments on 1600 g of chips (dry weight basis). The soaking was done at room temperature for about 1 hour. […] Based on the amount of water or sodium bisulfite solution absorbed by the chips, we calculated that 1600 g dry weight of chips retained about 600 or 1200 μg/ml of sodium bisulfite. […]
We repeated the experiment described above with a four-week incubation. […] Based on the amount of water or sodium bisulfite solution soaked, we calculated that each batch of 1600 g dry weight of chips retained about 1300 μg/ml of sodium bisulfite. […]

[2] = system: white-rot fungi; assay: Effect of sodium bisulfite on radial growth of white-rot fungi (summary); format: cell-based, white-rot fungi listed in Table 7; conditions: 500 μg/ml, 72 and 96 h
Method: (§1) 2% agar was added to the medium. The medium was autoclaved for 15 min. and the medium was poured into petri dishes. These plates were then inoculated with a plug cut into 8-mm diameter plugs from a petri dish containing a 5-day-old culture of P. chrysosporium or a petri dish containing a 10-day-old culture of another white-rot fungi. P. chrysosporium-inoculated plates were incubated at 39° C. Plates inoculated with other fungi were incubated at 27° C.

[3] = system: indigenous microorganisms; assay: Effect of sulfite salts on indigenous microorganisms of unsterilized wood chips (plating); format: cell-based, indigenous microorganisms of unsterilized aspen wood chips
Method: Aspen wood chips (50 g O.D. basis) were soaked in 500 ml of water containing either 0 mg, 781 mg or 1562 mg sodium bisulfite for about 1 hour at room temperature. After soaking, water was drained from the chips.
During the 1 hour soaking the chips soaked up about 31 ml of water. Therefore, the final moisture content of wood was about 61% (wet weight basis) and the final concentration of each chemical on water basis was about 0 μg/ml, 600 μg/ml and 1200 μg/ml.
Three chips were pulled randomly from each flask and plated on potato dextrose agar and tryptic soy agar plates. These plates were incubated at 27° C. for 24 or 27 h and the contaminants were visually observed.
A panel of other sulfur-containing chemicals were analyzed for their ability to inhibit the growth of indigenous microorganisms on unsterilized wood chips in the manner described above. Table 2 describes the various concentrations of these chemicals and the percent inhibition relative to control plates observed.

[4] = system: P. tremellosa PRL-2845; assay: Effect of sodium bisulfite on radial growth of white-rot fungi; format: cell-based; conditions: 500 μg/ml
Method: as §1

[5] = system: P. subserialis RLG-6074-sp; assay: as above; format: cell-based; conditions: 500 μg/ml
Method: as §1

[6] = system: P. brevispora 7030-sp; assay: as above; format: cell-based; conditions: 500 μg/ml
Method: as §1

[7] = system: H. setulosa FP-106976-sp; assay: as above; format: cell-based; conditions: 500 μg/ml
Method: as §1

## O=S([O-])O.[Na+] [Sodium Bisulfite]
[1]; 2 weeks
  growth of C. subvermispora at harvest (in words): heavy growth of C. subvermispora
[1]; 4 weeks
  growth of C. subvermispora at harvest (in words): heavy growth of C. subvermispora
[1]; treatment of wood chips, summary
  growth of white-rot fungi such as C. subvermispora (in words): promoted the growth of white-rot fungi
[2]
  radial growth (in words): increased the radial growth
[3]; 600 μg/ml
  Inhibition Relative to control: 95%
[3]; 1200 μg/ml
  Inhibition Relative to control: 100%
[3]; 1200 μg/ml, potato dextrose and tryptic soy agar plates
  inhibition of contaminants (in words): completely inhibited all contaminants; also recorded: no colonies on the plate
[3]; pass / not pass
  first test: whether the salt inhibits growth of indigenous microorganisms: passed the first test
[3]; unsterilized wood chips, overall statement
  inhibition of growth of indigenous microorganisms (in words): successfully inhibited the growth of microorganisms; also recorded: inhibited all wood contaminants; also recorded: inhibited the growth of indigenous microorganisms
[4]; 72 h
  Radial growth 72h ± SD: 1.73 ± .06 cm
[4]; 96 h
  Radial growth 96h ± SD: 2.97 ± .12 cm
[5]; 72 h
  Radial growth 72h ± SD: 3.93 ± .42 cm
[5]; 96 h
  Radial growth 96h ± SD: 7.07 ± .29 cm
[6]; 72 h
  Radial growth 72h ± SD: 2.23 ± .06 cm
[6]; 96 h
  Radial growth 96h ± SD: 4.07 ± .38 cm
[7]; 72 h
  Radial growth 72h ± SD: 1.97 ± .06 cm
[7]; 96 h
  Radial growth 96h ± SD: 3.77 ± .25 cm
